Assay results: ChEMBL document CHEMBL2074250, “Digoxin up-regulates MDR1 in human colon carcinoma Caco-2 cells” (Biochem Biophys Res Commun, 2002)

Biological target: ATP-dependent translocase ABCB1 (Homo sapiens, UniProt P08183)
Test: TP_TRANSPORTER: RT-PCR in Caco-2 cells
Type: functional, cell-based

Sequence of ATP-dependent translocase ABCB1 (P08183 whole entry): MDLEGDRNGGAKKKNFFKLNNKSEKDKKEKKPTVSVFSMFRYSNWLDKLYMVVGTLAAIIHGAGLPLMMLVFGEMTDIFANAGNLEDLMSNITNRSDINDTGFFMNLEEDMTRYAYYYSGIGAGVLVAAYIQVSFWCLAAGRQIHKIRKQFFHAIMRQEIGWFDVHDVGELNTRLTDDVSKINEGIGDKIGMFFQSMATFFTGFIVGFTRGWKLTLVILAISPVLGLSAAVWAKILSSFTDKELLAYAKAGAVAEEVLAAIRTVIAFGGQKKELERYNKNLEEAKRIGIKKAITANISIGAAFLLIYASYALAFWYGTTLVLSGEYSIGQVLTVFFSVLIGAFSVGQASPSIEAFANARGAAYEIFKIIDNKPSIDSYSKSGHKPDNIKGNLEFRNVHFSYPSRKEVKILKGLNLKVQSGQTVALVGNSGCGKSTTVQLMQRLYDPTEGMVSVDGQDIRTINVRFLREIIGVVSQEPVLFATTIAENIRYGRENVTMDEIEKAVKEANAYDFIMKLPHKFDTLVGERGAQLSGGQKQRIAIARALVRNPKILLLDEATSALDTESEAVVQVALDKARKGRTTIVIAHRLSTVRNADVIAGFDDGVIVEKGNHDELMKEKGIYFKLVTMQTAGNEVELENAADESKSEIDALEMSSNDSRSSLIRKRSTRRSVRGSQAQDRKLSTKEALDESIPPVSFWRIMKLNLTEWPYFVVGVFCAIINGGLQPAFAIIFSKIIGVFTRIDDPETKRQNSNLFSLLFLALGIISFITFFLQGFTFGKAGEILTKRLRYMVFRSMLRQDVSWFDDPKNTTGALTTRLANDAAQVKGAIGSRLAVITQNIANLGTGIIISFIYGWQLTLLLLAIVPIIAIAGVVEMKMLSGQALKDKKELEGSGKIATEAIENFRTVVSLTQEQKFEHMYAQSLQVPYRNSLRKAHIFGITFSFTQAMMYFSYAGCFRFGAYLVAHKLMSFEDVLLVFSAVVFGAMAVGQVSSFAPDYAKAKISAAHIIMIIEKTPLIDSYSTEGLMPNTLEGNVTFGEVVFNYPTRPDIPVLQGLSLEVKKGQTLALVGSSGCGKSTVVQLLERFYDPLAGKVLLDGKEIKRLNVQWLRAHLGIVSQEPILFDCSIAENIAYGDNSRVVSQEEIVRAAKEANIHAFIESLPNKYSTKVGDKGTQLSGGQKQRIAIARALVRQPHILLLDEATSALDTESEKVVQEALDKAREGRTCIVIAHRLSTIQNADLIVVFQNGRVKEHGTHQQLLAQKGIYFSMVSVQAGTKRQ

- Activity: inducer [+]
SMILES: C[C@H]1O[C@@H](O[C@H]2[C@@H](O)C[C@H](O[C@H]3[C@@H](O)C[C@H](O[C@H]4CC[C@@]5(C)[C@H](CC[C@@H]6[C@@H]5C[C@@H](O)[C@]5(C)[C@@H](C7=CC(=O)OC7)CC[C@]65O)C4)O[C@@H]3C)O[C@@H]2C)C[C@H](O)[C@@H]1O [DIGOXIN]
